Series [1] addresses T1, Solute carrier organic anion transporter family member 1B1 (Homo sapiens, UniProt Q9Y6L6).
T1 sequence (Q9Y6L6 whole entry): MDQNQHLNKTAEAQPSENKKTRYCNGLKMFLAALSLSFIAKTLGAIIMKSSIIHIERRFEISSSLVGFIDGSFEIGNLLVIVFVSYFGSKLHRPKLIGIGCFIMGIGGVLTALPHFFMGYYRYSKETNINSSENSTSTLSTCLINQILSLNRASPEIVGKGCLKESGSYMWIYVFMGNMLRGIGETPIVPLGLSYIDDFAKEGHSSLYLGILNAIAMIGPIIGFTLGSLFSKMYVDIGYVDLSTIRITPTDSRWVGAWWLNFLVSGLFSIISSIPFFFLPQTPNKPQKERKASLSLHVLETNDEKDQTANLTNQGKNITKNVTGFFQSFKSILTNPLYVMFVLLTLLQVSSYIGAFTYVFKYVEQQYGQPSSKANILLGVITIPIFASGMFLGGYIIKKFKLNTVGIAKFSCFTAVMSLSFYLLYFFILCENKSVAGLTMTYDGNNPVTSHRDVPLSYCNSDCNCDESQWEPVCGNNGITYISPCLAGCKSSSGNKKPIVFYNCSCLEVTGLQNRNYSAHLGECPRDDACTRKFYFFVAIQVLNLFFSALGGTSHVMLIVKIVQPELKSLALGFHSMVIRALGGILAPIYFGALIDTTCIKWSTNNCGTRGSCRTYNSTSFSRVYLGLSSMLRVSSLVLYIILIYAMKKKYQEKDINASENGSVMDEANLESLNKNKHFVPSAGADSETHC

For series [2], the target named is T1, Solute carrier organic anion transporter family member 1B1. The source holds these as a separate data set.
Series [3] has as its target T2, Solute carrier organic anion transporter family member 1B3 (Homo sapiens, UniProt Q9NPD5).
T2 sequence (Q9NPD5 whole entry): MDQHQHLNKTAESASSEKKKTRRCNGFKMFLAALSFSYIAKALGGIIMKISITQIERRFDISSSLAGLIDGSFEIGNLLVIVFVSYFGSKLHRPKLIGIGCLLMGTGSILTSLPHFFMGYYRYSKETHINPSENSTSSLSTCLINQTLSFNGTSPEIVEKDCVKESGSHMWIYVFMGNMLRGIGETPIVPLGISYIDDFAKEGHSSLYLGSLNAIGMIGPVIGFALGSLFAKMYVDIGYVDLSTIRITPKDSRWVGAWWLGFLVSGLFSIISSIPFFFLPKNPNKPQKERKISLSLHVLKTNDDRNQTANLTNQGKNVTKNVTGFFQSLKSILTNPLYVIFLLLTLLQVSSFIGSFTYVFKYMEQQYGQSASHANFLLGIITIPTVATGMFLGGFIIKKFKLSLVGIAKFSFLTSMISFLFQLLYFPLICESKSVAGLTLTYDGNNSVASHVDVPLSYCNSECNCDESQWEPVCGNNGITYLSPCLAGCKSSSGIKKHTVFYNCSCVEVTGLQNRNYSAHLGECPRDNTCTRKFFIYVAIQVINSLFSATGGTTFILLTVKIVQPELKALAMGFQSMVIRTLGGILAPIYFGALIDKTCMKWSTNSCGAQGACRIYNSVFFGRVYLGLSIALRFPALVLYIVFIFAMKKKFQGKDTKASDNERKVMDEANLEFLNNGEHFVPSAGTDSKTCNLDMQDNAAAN

Series [4] has as its target T2, Solute carrier organic anion transporter family member 1B3. This is another data set of the same source.
Series [5] addresses T1, Solute carrier organic anion transporter family member 1B1. As to conditions: chinese hamster, cho, 10 µM.
Series [6] concerns the target T2, Solute carrier organic anion transporter family member 1B3. As to conditions: chinese hamster, cho, 10 µM.

Each structure is given as a SMILES string. pIC50, pKi: −log10 of the molar value.

Broadly, the pIC50 is the IC50 on a negative log10 scale, so that one unit is a factor of ten. Higher therefore signals a small IC50. As a reminder, the pKi is the Ki on a negative log10 scale, so that one unit is a factor of ten. A lower pKi goes with a high Ki. As a reminder, the residual activity is the share of the control activity or signal that is left under treatment. A high value points to much activity left. Take `CC(C)=CCC[C@]1(C)C=Cc2c(O)c3c(c(CC=C(C)C)c2O1)O[C@]12C(C[C@@H]4C[C@H]1C(C)(C)O[C@@]2(C/C=C(/C)C(=O)O)C4O)C3=O` (stereo partly drawn): the figures for the pIC50 in series [1] and in series [3] were 5.70 and 5.55, respectively. For the same molecule, the pKi in series [2] was 5.96; in series [4] it was 5.67. Further, the residual activity in series [5] came to 12.48%; in series [6] it was 4.414%.

As for `C=C1[C@@H]2CC[C@@]3(C)[C@H](c4ccoc4)OC(=O)C[C@]13O[C@H]1C[C@H](OC(C)=O)C(C)(C)[C@H](CC(=O)OC)[C@]12C`, the pIC50 was 6.03 in series [1] and 5.35 in series [3]. Besides, the pKi in series [2] is 6.29; in series [4] it was 5.46. For the same molecule, the residual activity in series [5] is on record as 13.98%; in series [6] it was 21.87%.

As for `CC1(C)C(=O)CC[C@]2(C)[C@@H]1C[C@@H](O)[C@]1(C)C3=CC(=O)O[C@H](c4ccoc4)[C@@]3(C)CC[C@@H]21`, the pIC50 in series [1] was 5.20; in series [3] it was 5.48. The pKi in series [2] was 5.46; in series [4], 5.59. For the same molecule, the residual activity in series [5] came to 54.82%; in series [6], 48.28%.

Turning to `CC(=O)O[C@@H]1C[C@H]2C(C)(C)C(=O)CC[C@]2(C)[C@H]2CC[C@]3(C)C(=CC(=O)O[C@H]3c3ccoc3)[C@@]21C`, the pIC50 in series [1] is 5.45; in series [3] it was 5.11. The pKi in series [2] was 5.71; in series [4], 5.22. Moreover, the residual activity in series [5] amounted to 22.81%; in series [6], 54.65%.

For the molecule `CC(=O)O[C@H]1C[C@@H](OC(C)=O)C(C)(C)[C@@H]2C[C@@H](OC(C)=O)[C@]3(C)[C@H]([C@H](OC(C)=O)C[C@@]4(C)[C@H](c5ccoc5)OC(=O)[C@H]5O[C@@]534)[C@@]12C`, the pIC50 in series [1] was 6.06; in series [3], 5.40. Also, the pKi in series [2] was 6.32; in series [4], 5.52. Also, the residual activity is 20.57% in series [5] and 46.1% in series [6].

For the molecule `CC(=O)O[C@@H]1CC[C@]2(C)[C@H](C[C@@H](OC(C)=O)[C@]3(C)C4=CC(=O)O[C@H](c5ccoc5)[C@@]4(C)CC[C@@H]23)C1(C)C`, the values for the pIC50 in series [1] and in series [3] were 6.09 and 5.85, respectively. Further, the pKi in series [2] is 6.36; in series [4], 5.97. Moreover, the figures for the residual activity in series [5] and in series [6] were 18.95% and 8.019%, respectively.

With `CC(=O)O[C@@H]1C[C@@H]2C(C)(C)[C@H](O)C=C[C@@]2(C)[C@@H]2CC[C@@]3(C)C(=CC(=O)O[C@@H]3c3ccoc3)[C@@]12C`, the results for the pIC50 in series [1] and in series [3] were 5.66 and 5.43, respectively. For the same molecule, the pKi in series [2] is 5.92; in series [4], 5.54. The residual activity in series [5] was determined as 6.132%; in series [6], 23.16%.

Regarding `CC(=O)O[C@@H]1C[C@@H]2C(C)(C)C(=O)C=C[C@@]2(C)[C@@H]2CC[C@@]3(C)C(=CC(=O)O[C@@H]3c3ccoc3)[C@@]12C`, the figures for the pIC50 in series [1] and in series [3] were 5.82 and 5.42, respectively. The results for the pKi in series [2] and in series [4] were 6.08 and 5.54, respectively. For the same molecule, the residual activity in series [5] is given as 8.693%; in series [6], 22.73%.

Turning to `CC(=O)O[C@H]1C[C@@H](OC(C)=O)C(C)(C)[C@@H]2C[C@@H](O)[C@@]3(C)[C@H](CC[C@]4(C)[C@@H](c5ccoc5)OC(=O)[C@H]5O[C@@]534)[C@@]12C`, the pIC50 was 6.01 in series [1] and 5.53 in series [3]. For the same molecule, the pKi is 6.27 in series [2] and 5.64 in series [4]. The residual activity is 14.28% in series [5] and 9.535% in series [6].

On to `O=C(O[C@@H]1Cc2c(O)cc(O)cc2O[C@@H]1c1cc(O)c(O)c(O)c1-c1c([C@H]2Oc3cc(O)cc(O)c3C[C@H]2O)cc(O)c(O)c1O)c1cc(O)c(O)c(O)c1` [2',2'-BISEPIGALLOCATECHIN MONOGALLATE], for which the negative logarithm of the IC50 (pIC50) in series [1] was 5.43; in series [3] it was 5.07. Further, the values for the pKi in series [2] and in series [4] were 5.69 and 5.19, respectively. Also, the values for the residual activity in series [5] and in series [6] were 31.07% and 18.79%, respectively.

Regarding `CC(C)C1=CC2=CC[C@@H]3[C@](C)(CCC[C@@]3(C)C(=O)O)[C@H]2CC1` [ABIETIC ACID], the pIC50 in series [1] was 5.57; in series [3] it was 5.28. The pKi in series [2] was 5.83; in series [4], 5.39. Besides, the figures for the residual activity in series [5] and in series [6] were 7.365% and 33.77%, respectively.

Consider `CC(=O)Oc1c2c(c(CC=C(C)C)c3c1C(=O)C1=C[C@@H]4CC5C(C)(C)OC(C/C=C(\C)C(=O)O)(C4=O)[C@@]15O3)OC(C)(CCC=C(C)C)C=C2` (stereo partly drawn) [ACETYL ISOGAMBOGIC ACID], for which the pIC50 in series [1] was 5.39; in series [3] it was 5.27. The figures for the pKi in series [2] and in series [4] were 5.65 and 5.38, respectively. Also, the residual activity is 10.38% in series [5] and 30.34% in series [6].

Take `CC(=O)O[C@@H]1C[C@@]2(C)[C@H](c3ccoc3)C[C@H]3O[C@]32[C@]2(C)C(=O)C(O)=C3C(C)(C)C(=O)C=C[C@]3(C)C12` (stereo partly drawn) [ANTHOTHECOL]: the pIC50 in series [1] was 5.52; in series [3] it was 5.46. Moreover, the pKi was 5.78 in series [2] and 5.58 in series [4]. Further, the residual activity in series [5] stood at 20.37%; in series [6], 12.42%.

For the molecule `CCCCC/C=C\C/C=C\C/C=C\C/C=C\CCCC(=O)O` [ARACHIDONIC ACID], the pIC50 in series [1] was 6.22; in series [3], 5.97. The pKi in series [2] was 6.48; in series [4], 6.09. In addition, the residual activity in series [5] amounted to 23.4%; in series [6] it was 5.402%.

As for `O=C1C=CC(=C(c2ccc(O)cc2)c2ccc(O)cc2)C=C1` [AURIN], the pIC50 in series [1] was 5.58; in series [3], 5.39. Further, the pKi is 5.84 in series [2] and 5.50 in series [4]. The residual activity is listed as 4.068% in series [5] and 20.35% in series [6].

For the molecule `C=CC1=C(C)/C(=C/c2[nH]c(Cc3[nH]c(/C=C4\NC(=O)C(C)=C4C=C)c(C)c3CCC(=O)O)c(CCC(=O)O)c2C)NC1=O` [BILIRUBIN], the results for the pIC50 in series [1] and in series [3] were 5.88 and 5.47, respectively. For the same molecule, the pKi in series [2] is 6.14; in series [4] it was 5.58. Further, the residual activity in series [5] came out at 15.29%; in series [6], 32.05%.

As for `COC(=O)C[C@H]1C2(C)CC34OC5(C)O[C@@]6([C@H](OC(C)=O)C(OC(C)=O)[C@]7(C)C(/C(=C(/O)C(C)C)C(=O)O[C@H]7c7ccoc7)[C@@]6(O5)[C@H](OC(C)=O)[C@@]3(O)C2OC(=O)C(C)C)[C@]14C` (stereo partly drawn) [BUSSEIN], the pIC50 in series [1] and in series [3] was 6.16 each time. Besides, the figures for the pKi in series [2] and in series [4] were 6.42 and 6.28, respectively. Moreover, the residual activity in series [5] is 7.307%; in series [6] it was 5.392%.

In the case of `COC(=O)CC[C@@H](C)[C@H]1CC[C@H]2[C@@H]3[C@H](O)C[C@@H]4C[C@H](O)CC[C@]4(C)[C@H]3C[C@H](O)[C@]12C` [CHOLIC ACID, METHYL ESTER], the results for the pIC50 in series [1] and in series [3] were 5.08 and 5.43, respectively. In addition, the pKi in series [2] is 5.34; in series [4], 5.54. For the same molecule, the residual activity in series [5] is 26.02%; in series [6] it was 40.87%.

The record behind these values is ChEMBL document CHEMBL3039007, “Structure-based identification of OATP1B1/3 inhibitors” (Mol Pharmacol, 2013).
